# Source: patent US20060110451A1, “Formulations of [1,4]diazepino[6,7,1-IJ]quinoline derivatives” (priority 2004, published 2006)
# Like-named read-outs stand apart in the source and are kept apart here.
# Test: Ascending multiple dose pharmacokinetics of enteric coated capsules in healthy subjects
# Assay type: in vivo, human
# Settings: human, plasma, po, healthy subjects
# Experimental: Ascending multiple doses of 25, 50, 75, 100, 150, and 250 mg Compound A.HCl were administered as twice-daily regimen (q12h) for 14 days in cohorts of 8 healthy subjects (6 active and 2 placebo). Blood samples for Compound A.HCl analysis were obtained on days 1 and 14 within 2 hours of test article administration and at various time points from 0.5 to 48 hours after test article administration. Doses were administered orally after an overnight fast of at least 10 hours on these 2 days. Trough PK samples were collected on days 7, 10, and 12 to assess whether steady-state had been reached.
# A total of 48 subjects contributed pharmacokinetic data for this analysis. […] FIGS. 4A and 4B show the relationship between Cmax vs. dose and AUC vs. dose, respectively.
structure (smiles),measurement,setting,value
"Cl.c1cc2c3c(c1)[C@H]1CCC[C@H]1CN3CCNC2 [Compound A.HCl, (9aR,12aS)-4,5,6,7,9,9a,10,11,12,12a-decahydrocyclopenta[c][1,4]diazepino[6,7,1-ij]quinoline hydrochloride]",half-life,"75 mg, single oral dose 75 mg, day 1, read-out: t1/2 (Geom. Mean) (converted)",7.93 h
same,half-life,"75 mg, single oral dose 75 mg, day 1, read-out: t1/2 (Mean) (converted)",8.22 h
same,AUC(0-t),"100 mg, multiple oral doses (q12 h) 100 mg, day 14, read-out: AUCss (AUC0-12) (Geom. Mean)",49.2 ng·h/mL
same,AUC(0-t),"100 mg, multiple oral doses (q12 h) 100 mg, day 14, read-out: AUCss (AUC0-12) (Mean)",~62.8 ng·h/mL
same,Cmax,"100 mg, multiple oral doses (q12 h) 100 mg, day 14, read-out: Cmax (Geom. Mean)",6.45 ng/mL
same,Cmax,"100 mg, multiple oral doses (q12 h) 100 mg, day 14, read-out: Cmax (Mean)",7.81 ng/mL
same,Tmax,"100 mg, multiple oral doses (q12 h) 100 mg, day 14, read-out: Tmax (Geom. Mean)",5.3 h
same,Tmax,"100 mg, multiple oral doses (q12 h) 100 mg, day 14, read-out: Tmax (Mean)",5.5 h
same,half-life,"100 mg, multiple oral doses (q12 h) 100 mg, day 14, read-out: t1/2 (Geom. Mean) (converted)",7.72 h
same,half-life,"100 mg, multiple oral doses (q12 h) 100 mg, day 14, read-out: t1/2 (Mean) (converted)",7.86 h
same,AUC(0-inf),"100 mg, single oral dose 100 mg, day 1, read-out: AUC0-∞ (Geom. Mean)",47.2 ng·h/mL
same,AUC(0-inf),"100 mg, single oral dose 100 mg, day 1, read-out: AUC0-∞ (Mean)",55.5 ng·h/mL
same,Cmax,"100 mg, single oral dose 100 mg, day 1, read-out: Cmax (Geom. Mean)",3.64 ng/mL
same,Cmax,"100 mg, single oral dose 100 mg, day 1, read-out: Cmax (Mean)",4.38 ng/mL
same,Tmax,"100 mg, single oral dose 100 mg, day 1, read-out: Tmax (Geom. Mean)",5.3 h
same,Tmax,"100 mg, single oral dose 100 mg, day 1, read-out: Tmax (Mean)",5.5 h
same,half-life,"100 mg, single oral dose 100 mg, day 1, read-out: t1/2 (Geom. Mean) (converted)",9.31 h
same,half-life,"100 mg, single oral dose 100 mg, day 1, read-out: t1/2 (Mean) (converted)",9.9 h
same,AUC(0-t),"150 mg, multiple oral doses (q12 h) 150 mg, day 14, read-out: AUCss (AUC0-12) (Geom. Mean)",90.7 ng·h/mL
same,AUC(0-t),"150 mg, multiple oral doses (q12 h) 150 mg, day 14, read-out: AUCss (AUC0-12) (Mean)",~110 ng·h/mL
same,Cmax,"150 mg, multiple oral doses (q12 h) 150 mg, day 14, read-out: Cmax (Geom. Mean)",10.7 ng/mL
same,Cmax,"150 mg, multiple oral doses (q12 h) 150 mg, day 14, read-out: Cmax (Mean)",13.1 ng/mL
same,Tmax,"150 mg, multiple oral doses (q12 h) 150 mg, day 14, read-out: Tmax (Geom. Mean)",5 h
same,Tmax,"150 mg, multiple oral doses (q12 h) 150 mg, day 14, read-out: Tmax (Mean)",5.2 h
same,half-life,"150 mg, multiple oral doses (q12 h) 150 mg, day 14, read-out: t1/2 (Geom. Mean) (converted)",7 h
same,half-life,"150 mg, multiple oral doses (q12 h) 150 mg, day 14, read-out: t1/2 (Mean) (converted)",7.04 h
same,AUC(0-inf),"150 mg, single oral dose 150 mg, day 1, read-out: AUC0-∞ (Geom. Mean)",55.3 ng·h/mL
same,AUC(0-inf),"150 mg, single oral dose 150 mg, day 1, read-out: AUC0-∞ (Mean)",70.2 ng·h/mL
same,Cmax,"150 mg, single oral dose 150 mg, day 1, read-out: Cmax (Geom. Mean)",3.67 ng/mL
same,Cmax,"150 mg, single oral dose 150 mg, day 1, read-out: Cmax (Mean)",5.05 ng/mL
same,Tmax,"150 mg, single oral dose 150 mg, day 1, read-out: Tmax (Geom. Mean)",5.6 h
same,Tmax,"150 mg, single oral dose 150 mg, day 1, read-out: Tmax (Mean)",5.7 h
same,half-life,"150 mg, single oral dose 150 mg, day 1, read-out: t1/2 (Geom. Mean) (converted)",9 h
same,half-life,"150 mg, single oral dose 150 mg, day 1, read-out: t1/2 (Mean) (converted)",9.08 h
same,AUC(0-t),"250 mg, multiple oral doses (q12 h) 250 mg, day 14, read-out: AUCss (AUC0-12) (Geom. Mean)",218 ng·h/mL
same,AUC(0-t),"250 mg, multiple oral doses (q12 h) 250 mg, day 14, read-out: AUCss (AUC0-12) (Mean)",~235 ng·h/mL
same,Cmax,"250 mg, multiple oral doses (q12 h) 250 mg, day 14, read-out: Cmax (Geom. Mean)",25.6 ng/mL
same,Cmax,"250 mg, multiple oral doses (q12 h) 250 mg, day 14, read-out: Cmax (Mean)",26.8 ng/mL
same,Tmax,"250 mg, multiple oral doses (q12 h) 250 mg, day 14, read-out: Tmax (Geom. Mean)",5.9 h
same,Tmax,"250 mg, multiple oral doses (q12 h) 250 mg, day 14, read-out: Tmax (Mean)",6.2 h
same,half-life,"250 mg, multiple oral doses (q12 h) 250 mg, day 14, read-out: t1/2 (Geom. Mean) (converted)",6.99 h
same,half-life,"250 mg, multiple oral doses (q12 h) 250 mg, day 14, read-out: t1/2 (Mean) (converted)",7.12 h
same,AUC(0-inf),"250 mg, single oral dose 250 mg, day 1, read-out: AUC0-∞ (Geom. Mean)",84.7 ng·h/mL
same,AUC(0-inf),"250 mg, single oral dose 250 mg, day 1, read-out: AUC0-∞ (Mean)",95.5 ng·h/mL
same,Cmax,"250 mg, single oral dose 250 mg, day 1, read-out: Cmax (Geom. Mean)",5.91 ng/mL
same,Cmax,"250 mg, single oral dose 250 mg, day 1, read-out: Cmax (Mean)",6.27 ng/mL
same,Tmax,"250 mg, single oral dose 250 mg, day 1, read-out: Tmax (Geom. Mean)",5.9 h
same,Tmax,"250 mg, single oral dose 250 mg, day 1, read-out: Tmax (Mean)",6 h
same,half-life,"250 mg, single oral dose 250 mg, day 1, read-out: t1/2 (Geom. Mean) (converted)",9.91 h
same,half-life,"250 mg, single oral dose 250 mg, day 1, read-out: t1/2 (Mean) (converted)",10.4 h
